Values joined by “and” are separate entries in the source; they are usually repeats but may differ in a detail not shown here. Identical values can stand only once.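 Where inhibition never reached the appropriate level, the endpoint shown equals the highest concentration tested. Otherwise, values were interpolated linearly from a five-concentration, 48-hour dose response in 96-well plates. GI50: concentration for 50% inhibition of growth. TGI: total growth inhibition.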
Tests used:
Assay in all cases: NCI tumour cell line growth inhibition, 48 h
[1] = system: MDA-MB-231 breast
[2] = system: MDA-MB-435
[3] = system: MDA-N
[4] = system: DMS 114 small cell lung
[5] = system: DMS 273 small cell lung
[6] = system: HOP-18 NSCLC
[7] = system: KM20L2 colon
[8] = system: XF 498 CNS
[9] = system: RXF-631 renal

SMILES	GI50 [1] [µM]	TGI [1] [µM]	GI50 [2] [µM]	TGI [2] [µM]	TGI [4] [µM]	TGI [5]	TGI [7]	further results
CC(=O)OCC1OC(O[C@@H]2C[C@H]3C(C)(C)[C@H](OC(C)=O)CC[C@]3(C)[C@H]3CC[C@@H]4[C@]5(CC[C@@]4(C)[C@@]32C)O[C@@H]([C@H](O)C(C)(C)O)C[C@@H]5C)C(O)C(O)C1O (some centres not stated)	10.2	22.3	8.36	22.4				GI50 [3]: 7.08 µM; TGI [3]: 20.1 µM
COc1cc([N+](=O)[O-])c2ncccc2c1O	26.1	> 100	3.53	14.8				
CCc1ccc(/C=C2/SC(=S)NC2=O)cc1	18.9	46.7	27.5	> 100				
C=C(C)[C@@H]1CC[C@]2(C#N)CC[C@]3(C)[C@H](CC[C@@H]4[C@@]5(C)CCCNC(C)(C)[C@@H]5CC[C@]43C)[C@@H]12	1.84	3.38	1.92	3.78				
COc1cc(Nc2ncc(-c3ccccc3)o2)cc(OC)c1OC	2.5	> 25	0.154	> 5.89				
CCn1c(-c2cc3ccccc3cc2OC(=O)c2ccccc2)n[nH]c1=S	25.2	> 50	> 50	> 50				
N#CC(C#N)=C/C=C/c1cccc([N+](=O)[O-])c1	1.74	16	0.426	2.53				
C=C1C(=O)O[C@H]2[C@H](OC(C)=O)[C@@H](C)CCC/C(C)=C/CC[C@]3(CO3)[C@H](O)C[C@@H]12	5.25	17.2	3.01	7.99				
O=C(O)C(O)C(O)C1[O][Sb][O]C1CO (configuration not stated)	> 100	> 100	> 100	> 100	98.3	> 100 µM	> 100 µM	GI50 [4]: > 43 µM; GI50 [5]: > 100 µM; GI50 [6]: > 100 µM; TGI [6]: > 100 µM; GI50 [7]: > 100 µM; GI50 [3]: > 100 µM; TGI [3]: > 100 µM; GI50 [8]: > 100 µM; TGI [8]: > 100 µM
Cc1ccc(S(=O)(=O)ON=C2CC(c3ccccc3)N(C)C(c3ccccc3)C2)cc1 (configuration not stated)					29.9	41.4 µM and 56.8 µM	53.6 µM and 45.9 µM	
COc1cc(C(N)=O)c(OC)c(OC)c1OC					> 100	> 100 µM	> 100 µM	TGI [9]: > 100 µM
C[C@@H]1CC[C@H]2C(CN3CCN(CC4=C(C(F)(F)F)O[C@@H]5O[C@@]6(C)CC[C@H]7[C@H](C)CC[C@@H]4[C@@]57OO6)CC3)=C(C(F)(F)F)O[C@@H]3O[C@@]4(C)CC[C@@H]1[C@]32OO4	7.85	> 27.7	1.09	> 100				
Cc1ccc(Nc2ccnc(Nc3cccc(C(N)=O)c3)n2)cc1O	4.27	> 25	7.98	> 25				
Fc1cc(Nc2ccc3c(OCCCN4CCOCC4)cccc3n2)ccc1Cl			2.05	4.83				
ClCc1ccc(Cn2cnc3ncnc(Cl)c32)cc1	1.76	3.35	5.82	19.2				
NC(=O)c1ccc(-c2c3ccccc3cc3c2ccc2ccccc23)cc1	3.91	23.8	0.382	3.51				
CC(C)c1cc2c(O)c(c1)Cc1cc(C(C)C)cc(c1O)Cc1cc(C(C)C)cc(c1O)Cc1cc(C(C)C)cc(c1O)Cc1cc(C(C)C)cc(c1O)Cc1cc(C(C)C)cc(c1O)C2					> 100	> 100 µM	> 100 µM	TGI [8]: > 100 µM
CN(C)c1ccc(/C=N/Nc2ccc(-c3nc4ccccc4[nH]3)cc2)cc1	13.4	42.1	8.25	> 50				

SMILES	GI50 [1] [µM]	TGI [1] [µM]	GI50 [2] [µM]	TGI [2] [µM]	TGI [4] [µM]	TGI [5]	TGI [7]	further results
O=[N+]([O-])C(=C(c1ccccc1)c1ccccc1)[N+](=O)[O-]					43.2	22.5 µM	32.1 µM	
CC(=O)Nc1[nH]c(=O)[nH]c(=O)c1N(C(C)=O)C(C)=O					> 100	> 100 µM	> 100 µM	TGI [8]: > 100 µM
CC1=C[C@H]2C[C@@]3(C)O[C@@H]([C@]4(C)CC[C@H]([C@@H](C)C(=O)O)OO4)CC3C(C)(C)[C@H]2CC1 (some centres not stated)					3.32	1.74 µM	3.91 µM	TGI [8]: 0.234 µM
CC(C)=CCC[C@](C)(O)[C@H]1CC[C@]2(C)[C@@H]1CC[C@@H]1[C@@]3(C)CC[C@H](OC(=O)CCC(=O)O)C(C)(C)[C@@H]3CC[C@]12C	30.1	87.5	29.3	> 100				
OCC(O)C(OC1OC(CO)C(O)C(O)C1O)c1nn(-c2ccc(F)cc2)c2nc3cc(Cl)c(Cl)cc3cc12 (configuration not stated)					> 100		> 100 µM	TGI [8]: > 100 µM
C1CCN2CC34CC(CC5CCCN(C6CCCC3N6)C54)C2C1 (configuration not stated)		> 100		> 100				TGI [3]: > 100 µM
COCCOCCOCCOCCOc1ccc2c(c1)C(=O)c1nc3ncccc3c(=O)n1-2	2.93	52	0.188	0.364				
COCCn1cc(-c2csc(-c3c[nH]c4ccc(F)cc34)n2)c2cccnc21	2.59	> 100	0.89	14.3				
COc1cc(C=NCC(=O)CSC(c2ccccc2)c2ccccc2)cc(OC)c1OC	18.1	> 100	25.1	80.2				
CC(C)(C)c1ccc(C(O)(c2ccc(C(C)(C)C)cc2)c2ccc(C(C)(C)C)cc2)cc1		> 100		> 100				TGI [3]: > 100 µM
Cc1cc(C#Cc2ccccc2)ccc1-n1c(/C=C/c2ccc(O)cc2)nc2ccccc2c1=O	3.89	29.5	2.82	22.8				
O=C(Nc1ccc(-c2nc3ccc(NC(=O)c4ccc(Cl)cc4)cc3[nH]2)cc1)c1ccc(Cl)cc1	3.68	15.4	2.36	7.14				
COc1ccc(/C=C/CO)cc1OC					> 100	> 100 µM	> 100 µM	
CN(C)/C(=N/C(=O)Nc1ccccc1)SCc1ccccc1					> 100	> 100 µM		TGI [6]: > 100 µM; TGI [8]: > 100 µM
Cc1ccc(NC(=O)CCC(=O)C(C#N)c2ccc(Cl)cc2)cc1C (configuration not stated)					> 100	> 100 µM	> 100 µM	TGI [6]: > 100 µM; TGI [8]: > 100 µM
S=C1OC2C3C4CC5C3C(O1)C1C5C4C21 (configuration not stated)					> 100	> 100 µM	> 100 µM	TGI [6]: > 100 µM
O=C(O)CCN1C(=O)/C(=C/C(Cl)=C/c2ccccc2)SC1=S	3.38	11	2.95	11.6				

From PubChem BioAssay (NCI)
